Experimental data taken from the NIST ThermoML archive (doi:10.1016/j.fluid.2014.09.014).

Assay: refractive index (other wavelength) (dimensionless); xn = mol fraction of the nth substance listed
Conditions: 313.15 K, 101 kPa, Liquid, Standard Abbe refractometry

CC(C)OC(C)C [diisopropyl ether] + CC(C)O
refractive index
Conditions | Wavelength=587.6 nm | Wavelength=589.3 nm | Wavelength=632.8 nm | Wavelength=644 nm
x1 = 0.0277 | – | 1.36835 | 1.36708 | 1.36678
x1 = 0.0507 | – | 1.36828 | 1.367 | 1.3667
x1 = 0.051 | – | 1.36822 | 1.36696 | 1.36665
x1 = 0.0717 | – | 1.36787 | 1.36659 | 1.36629
x1 = 0.1528 | – | 1.36718 | 1.3659 | 1.36561
x1 = 0.1553 | – | 1.36718 | 1.3659 | 1.36561
x1 = 0.1938 | – | 1.36694 | 1.36566 | 1.36537
x1 = 0.2029 | – | 1.3664 | 1.36512 | 1.36482
x1 = 0.245 | – | 1.36591 | 1.36465 | 1.36436
x1 = 0.297 | – | 1.36507 | 1.36381 | 1.36351
x1 = 0.2973 | – | 1.36529 | 1.36401 | 1.36372
x1 = 0.3068 | – | 1.36504 | 1.36377 | 1.36347
x1 = 0.398 | – | 1.3637 | 1.36244 | 1.36213
x1 = 0.4609 | – | 1.36297 | 1.36172 | 1.36142
x1 = 0.5434 | 1.36211 | 1.36206 | 1.36081 | 1.36051
x1 = 0.6032 | 1.36136 | 1.3613 | 1.36007 | 1.35977
x1 = 0.6371 | 1.36099 | 1.36094 | 1.3597 | 1.3594
x1 = 0.701 | 1.36025 | 1.36019 | 1.35895 | 1.35865
x1 = 0.754 | 1.35981 | 1.35976 | 1.35851 | 1.35821
x1 = 0.791 | 1.35941 | 1.35936 | 1.35812 | 1.35782
x1 = 0.8296 | 1.35902 | 1.35897 | 1.35772 | 1.35742
x1 = 0.8864 | 1.3589 | 1.35885 | 1.35758 | 1.35729
x1 = 0.8903 | 1.35833 | 1.35827 | 1.35704 | 1.35674
x1 = 0.9113 | 1.35809 | 1.35802 | 1.35679 | 1.3565
x1 = 0.9547 | 1.35761 | 1.35756 | 1.35631 | –
x1 = 0.973 | 1.35727 | 1.35722 | 1.35599 | –
x1 = 0.9771 | 1.35715 | 1.3571 | 1.35587 | –
x1 = 1 | 1.357 | 1.35694 | 1.35572 | –
